Key:
[1] = test system: αY447fs (co-expressed with βγ-ENaC); assay: Whole-cell patch clamp, αY447fs + WT βγ; type: cell-based, human; conditions: read-out: EC50, solnatide, HEK-293, whole-cell, -100 mV, n = 7
Protocol: Point mutations of α-, β-, γ- and δ-hENaC and PHA1B frameshift mutations of α-hENaC were prepared with the QuikChange Lightning Site-Directed Mutagenesis Kit (Agilent Technologies, CA, USA). Mutagenic primers were designed individually with the Primer Design Program provided on the producer’s website or for the frameshift mutations the same base changes as reported in patients (see Table 2) were performed. Primers were ordered from Sigma-Aldrich, Vienna, Austria.
HEK-293 cells were transfected 1 day after cell seeding using X-tremeGENE HP DNA transfection reagent (Roche Diagnostics, Mannheim, Germany) according to the manufacturer’s protocol. A set of WT or mutant αβγ- or δβγ-hENaC, or α-, β-, γ-, or δ-hENaC alone was used, and the ratio of DNA to transfection reagent was 1:3. The expression was highest 48–72 h after transfection.
Electrophysiological experiments were performed as described in detail by Shabbir et al. ([16]). […] Currents were recorded with the patch clamp method in the whole-cell mode. The chamber contained 1 ml of the bath solution of the following composition (in mM): 145 NaCl, 2.7 KCl, 1.8 CaCl2, 2 MgCl2, 5.5 glucose, and 10 HEPES, adjusted to pH 7.4 with 1 M NaOH solution. Micropipettes were pulled from thin-walled borosilicate glass capillaries (Harvard Apparatus, Holliston, MA, USA) with a DMZ Zeitz Puller to obtain electrode resistances ranging from 2 to 5 MΩ. […]

αL576XβD546XγD556X = assay: Amiloride-sensitive current, αL576XβD546XγD556X; type: cell-based, human; conditions: lacking all carboxyl termini, preliminary experiments
δ-hENaC = target: T1, δ-hENaC (Homo sapiens, UniProt P51172); parameters: method as in PMID 24077967; conditions: δ-hENaC alone, control current 60.6 ± 2.5 pA, mean ± S.E.; cited from earlier work
T1 construct: expressed in transfected cells; host or cells: HEK-293
T1 sequence (P51172 1-638 isoform P51172-1): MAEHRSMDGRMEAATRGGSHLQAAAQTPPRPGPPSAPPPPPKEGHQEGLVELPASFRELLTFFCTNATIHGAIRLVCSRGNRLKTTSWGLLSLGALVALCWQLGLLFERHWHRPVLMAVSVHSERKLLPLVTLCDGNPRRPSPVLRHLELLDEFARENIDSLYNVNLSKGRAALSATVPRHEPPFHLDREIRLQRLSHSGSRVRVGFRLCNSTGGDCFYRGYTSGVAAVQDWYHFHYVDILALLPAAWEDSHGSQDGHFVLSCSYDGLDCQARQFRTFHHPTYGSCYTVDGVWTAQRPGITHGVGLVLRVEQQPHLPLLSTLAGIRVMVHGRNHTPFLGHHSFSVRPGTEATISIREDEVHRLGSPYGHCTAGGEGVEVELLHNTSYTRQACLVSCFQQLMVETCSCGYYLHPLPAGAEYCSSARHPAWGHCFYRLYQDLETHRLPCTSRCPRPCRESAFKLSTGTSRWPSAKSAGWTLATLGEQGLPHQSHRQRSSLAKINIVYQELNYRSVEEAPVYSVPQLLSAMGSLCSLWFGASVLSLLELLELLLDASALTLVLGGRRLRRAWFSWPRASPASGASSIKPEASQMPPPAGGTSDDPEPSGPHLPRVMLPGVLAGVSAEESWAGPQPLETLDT

A549 cells = conditions: cited from earlier work
[2] = test system: pathological conditions involving ENaC; conditions: cited from earlier work
γ-ENaC = conditions: HEK-293, 5 and 10 min; cited from earlier work

Structure (SMILES): C[C@@H]1NC(=O)CNC(=O)[C@H](CCC(=O)O)NC(=O)[C@@H]2CCCN2C(=O)[C@H]([C@@H](C)O)NC(=O)[C@H](CCC(=O)O)NC(=O)[C@H](CCCNC(=N)N)NC(=O)[C@H](CCC(N)=O)NC(=O)CNC(=O)[C@@H](N)CSSC[C@@H](C(=O)O)NC(=O)[C@H](Cc2ccc(O)cc2)NC(=O)[C@H](Cc2c[nH]c3ccccc23)NC(=O)[C@@H]2CCCN2C(=O)[C@H](CCCCN)NC(=O)[C@H](C)NC(=O)[C@H](CCC(=O)O)NC1=O [solnatide, L-cysteine, L-cysteinylglycyl-L-glutaminyl-L-arginyl-L-α-glutamyl-L-threonyl-L-prolyl-L-α-glutamylglycyl-L-alanyl-L-α-glutamyl-L-alanyl-L-lysyl-L-prolyl-L-tryptophyl-L-tyrosyl-, cyclic (1→17)-disulfide]
- EC50 [1]: 57.2 ± 4.8 nM
- Effect of solnatide on current (words) (αL576XβD546XγD556X): an even slighter, non-significant increase of current
- Maximal induced current, solnatide (δ-hENaC): 15.6 ± 7.9 pA
- Increase in single channel parameters after PNGase F (A549 cells; A549 cells, PNGase F pretreated): completely abolished in PNGase F pretreated cells
- Single channel open probability, mean open time, number and duration of bursts (A549 cells; A549 cells): significantly increased
- Effect on current, A549 cells (A549 cells; endogenous α-, β-, γ-, δ-subunits): current activating effect
- Efficacy in phase II clinical trials [2]: already proven in pathological conditions involving ENaC in phase II clinical trials
- Membrane abundance, solnatide (γ-ENaC): only slight

From publication PMC5447021, “TNF Lectin-Like Domain Restores Epithelial Sodium Channel Function in Frameshift Mutants Associated with Pseudohypoaldosteronism Type 1B” (Frontiers in Immunology, 2017)
